Measured values from patent US20030186887A1, “Compounds for detection of infection by chlamydophila abortus” (priority 2000, published 2003).
Where two headings read alike, the source gives them in different places. Ends that are not written are not given here. * marks the point of attachment. Biotin = O=C1N[C@H]2[C@H](CS[C@H]2CCCCC(=O)*)N1

How the values were obtained:
[1] = system: antibodies to C. abortus; experiment: ELISA, serological reactivity of biotinylated peptides against serum dilutions (Tables 1 and 2); format: binding, sheep
Protocol: Application of the peptide mixture is performed as follows:
Two dilutions of standard serum are used.
The data illustrate that the length of compound has a major impact on serological reactivity.
Thus, substitutions within the core epitopes described in this invention are possible without too much loss in compound serological reactivity.

[2] = system: sera from sheep free of infection with C. abortus
Source text: In the Applicant's experience at least two different forms of microtitration plates may be used. One form uses tresyl-activated dextran, which is applied to the polystyrene plate and forms a layer between the plate and the peptide (Gregorius et al., 1995). The commercially available plates (‘Aquabind™’) are produced by M&E, Denmark and marketed in the UK through Labsystems by Life Sciences. […] The second form of plate is one modified by coating with streptavidin. Such plates are commercially available e.g. Labsystems, Pierce and Warriner. […] The preferred microtitration plate types used to bind streptavidin are those modified to provide high protein binding e.g. Dynex Immulon 2, Greiner High Bind. To each well is added streptavidin in 150 μl volumes. The plates are incubated, preferably for 2 hours at 35-37° C., then the contents ejected and the plates washed 3 times with PBS buffer, pH 7.4 (Appendix). The plates are thoroughly dried and stored at 4° C. until required. Application of the peptide mixture is performed as follows:
The stock solutions (1 mg per ml) of the selected peptides are diluted in the same volume of carbonate-bicarbonate buffer, pH 9.6, to their optimum concentration. […] The peptide mixture solution is added in volumes of 150 μl per well. In a ‘controlled’ test, the peptide mixture is added to all wells in even numbered columns, while carbonate-bicarbonate buffer is added to all wells in odd-numbered columns in the same volume per well. In ‘screen’ tests, where control wells are not used for each sample, the peptide mixture is added to all 96 wells on the plate. The plates are incubated, preferably at 4° C. for 4 to 12 hours, then washed 4 times with PBS/Tween buffer (Appendix) and thoroughly dried, preferably for 4 hours in a fan-driven cabinet. The coated plates are placed in watertight bags with a desiccant, and the bags sealed and stored at 4° C. until required.
Two dilutions of standard serum are used. One, employed at a dilution of 1 in 1000, is used to indicate successful performance of the test (‘standard positive’). […] In the kits, the positive and cut-off standards are provided pre-diluted to working strength in a proprietary stabilisation buffer (Dako) which contains a preservative (ProClin 300; Supelco; used at 1 in 2000), and are not diluted further before addition to the test plate.
The test serum samples are diluted 1:100 in Serum Conjugate Diluent (Appendix). The test kits provide a Diluter plate, which has very low protein binding properties. By adding 15 μl of serum to 135 μl of Serum Conjugate Diluent on the Diluter plate, an initial 1 in 10 dilution is achieved. Transfer of 15 μl from the Diluter plate to 135 μl of Serum Conjugate Diluent dispensed into each well in the test plate enables a further dilution to 1 in 100 (from the original sample) on the test plate. […] Dilution of sera can also be performed, if preferred, in bijoux or tubes before their addition in 150 μl volumes to the Test plate.
Test and standard sera are incubated on the Test plate for 15 min at room temperature (˜20° C.), then 30 min at 37° C. Plate contents are then ejected and the plate washed 4 times with PBS/Tween (Appendix) and dried.
A probe to detect the presence of immunoglobulin, to which is conjugated an enzyme (the ‘conjugate’), is then added. Preferably, the probe constitutes Protein G (recombinant form, in which the moiety that binds to albumin has been eliminated; available from Sigma and Calbiochem) conjugated with horse radish peroxidase, but many forms of conjugate are available. These include, as probes, Protein A; and monoclonal or polyclonal antibodies against the immunoglobulins of the species providing the test sample.

[3] = Solubilisation of compounds; format: physicochemical; settings: water
Protocol: Each peptide is resuspended in the preferred solvent to a concentration of 1 mg per ml. This stock solution is dispensed in 500 μl volume aliquots in 1 ml bottles, labelled and stored at −85° C. or, less preferably, at −20° C.

[4] = PS (Positive Control Serum) 1/1000
[5] = PS (Positive Control Serum) 1/15000
[6] = serum of Animal No. 28, sheep free of infection with C. abortus
[7] = serum of Animal No. 14, sheep free of infection with C. abortus

Biotin-KASSAAFNLVGLIVKGSSIAADQ [Compound 2/L]
Net Optical Density ([1]; serum dilution 1/100): 2.629 | Net Optical Density ([1]; serum dilution 1/200): 1.885 | Net Optical Density ([1]; serum dilution 1/400): 1.107 | Net Optical Density ([1]; serum dilution 1/800): 0.544 | Net Optical Density ([1]; serum dilution 1/1600): 0.263 | Net Optical Density ([1]; serum dilution 1/3200): 0.115 | Net Optical Density ([1]; serum dilution 1/6400): 0.056 | Net OD [Gross OD - No compound OD] [2, 4]: 1.534 | Net OD [Gross OD - No compound OD] [2, 5]: 0.098 | Net OD [Gross OD - No compound OD] ([2]; serum of Animal No. 5, sheep free of infection with C. abortus): 0.285 | Net OD [Gross OD - No compound OD] ([2]; serum of Animal No. 13, sheep free of infection with C. abortus): 0.572 | Net OD [Gross OD - No compound OD] [2, 6]: 0.389 | Net OD [Gross OD - No compound OD] ([2]; serum of Animal No. 36, sheep free of infection with C. abortus): 0.128

Biotin-KTITGKKVPTGTAAANYKTPT [Compound 1-5]
Net OD [Gross OD - No compound OD] [2, 4]: 3.744 | Net OD [Gross OD - No compound OD] [2, 5]: 0.452 | Net OD [Gross OD - No compound OD] [2, 7]: 0.978 | Net OD [Gross OD - No compound OD] ([2]; serum of Animal No. 19, sheep free of infection with C. abortus): 0.747 | Net OD [Gross OD - No compound OD] [2, 6]: 0.352 | Net OD [Gross OD - No compound OD] ([2]; serum of Animal No. 31, sheep free of infection with C. abortus): 0.423 | Net OD [Gross OD - No compound OD] ([2]; serum of Animal No. 37, sheep free of infection with C. abortus): 0.580

Biotin-KTITGMGAVPTGTAAANYKT [Compound 1/AX]
Net OD [Gross OD - No compound OD] [2, 4]: 3.690 | Net OD [Gross OD - No compound OD] [2, 5]: 0.493 | Net OD [Gross OD - No compound OD] [2, 7]: 0.511

GKGSSIAADQNKGSSIAADQ [Compound #2]
solubility [3]: soluble in water

SGTAAANYKTKGTAAANYKT [Compound #1]
solubility [3]: soluble in water
